Reference: patent US10047036B2, “Method for the synthesis of hydroxy-triglycerides and uses thereof for the prevention and treatment of diseases” (UNIVERSITAT DE LES ILLES BALEARS, priority 2014, dated 2018)

Assays:
plasma glucose = plasma glucose in spontaneously hypertensive rats; type: in vivo; conditions: SHR rats, 9 days, 400 mg/kg every 12 hours, p.o.; fasting 12 hours
Description: Metabolic and cardiovascular pathologies are closely related. The overfeeding which characterises our society not only gives rise to problems of obesity and excess weight. It is also linked to the appearance of diabetes, dyslipidaemia, hypertension, strokes, arteriosclerosis, ictus, etc. All of these pathologies increase the risk of premature death and can even cause death. In this sense, certain natural oils show a certain efficacy against this type of pathologies, but their power is limited. In contrast, the molecules of the invention have an important effect against the development of this type of pathologies. To be able to study the effects of the compounds of the invention for the prevention and treatment of metabolic and cardiovascular pathologies, hypertensive rats were used (SHR strain, spontaneously hypertensive rats). These rats present obesity, high blood pressure, dyslipidaemia (hypercholesterolemia and hypertriglyceridemia), diabetes, metabolic syndrome and other related health problems. At the same time, research was conducted into the efficacy of the hydroxy-triglycerides for controlling the high levels of glycaemia in SHR rats, and therefore, preventing or curing diabetes. Hypertensive rats (SHR) with an approximate weight of 300 grams were treated with TGM1 during 9 days (400 mg/kg, every 12 h, p.o.). Plasma glucose was measured before starting the treatment (basal) and 9 days later. In all cases, the plasma measurements were conducted in rats kept fasting during 12 hours. In this way, after 9 days of treatment, the levels of glucose in blood were reduced by up to more than 25% for the molecules of the invention (FIG. 5 and Table 4). [table]

cholesterol in plasma = assay: plasma cholesterol in SHR rats; type: in vivo; conditions: p.o.; for Chol, levels of total cholesterol in plasma: 6 days, 400 mg/kg
Description: Metabolic and cardiovascular pathologies are closely related. The overfeeding which characterises our society not only gives rise to problems of obesity and excess weight. It is also linked to the appearance of diabetes, dyslipidaemia, hypertension, strokes, arteriosclerosis, ictus, etc. All of these pathologies increase the risk of premature death and can even cause death. In this sense, certain natural oils show a certain efficacy against this type of pathologies, but their power is limited. In contrast, the molecules of the invention have an important effect against the development of this type of pathologies. To be able to study the effects of the compounds of the invention for the prevention and treatment of metabolic and cardiovascular pathologies, hypertensive rats were used (SHR strain, spontaneously hypertensive rats). These rats present obesity, high blood pressure, dyslipidaemia (hypercholesterolemia and hypertriglyceridemia), diabetes, metabolic syndrome and other related health problems. Also, SHR rats were used to research the efficacy of the hydroxy-triglycerides for the prevention and treatment of dyslipidaemias. On the one hand, treatments with different oral doses and durations gave rise to reductions in the plasma levels of total cholesterol and its fractions in test animals (Tables 5 and 6). These reductions were marked and significant, returning the cholesterol in plasma values to those found in animals without metabolic/cardiovascular disorders. […] [table] [table]

body weight of SHR rats = type: in vivo; conditions: 14 days, 600 mg/kg, 12 h, p.o., basal weight 342 grams
Description: Metabolic and cardiovascular pathologies are closely related. The overfeeding which characterises our society not only gives rise to problems of obesity and excess weight. It is also linked to the appearance of diabetes, dyslipidaemia, hypertension, strokes, arteriosclerosis, ictus, etc. All of these pathologies increase the risk of premature death and can even cause death. In this sense, certain natural oils show a certain efficacy against this type of pathologies, but their power is limited. In contrast, the molecules of the invention have an important effect against the development of this type of pathologies. To be able to study the effects of the compounds of the invention for the prevention and treatment of metabolic and cardiovascular pathologies, hypertensive rats were used (SHR strain, spontaneously hypertensive rats). These rats present obesity, high blood pressure, dyslipidaemia (hypercholesterolemia and hypertriglyceridemia), diabetes, metabolic syndrome and other related health problems.

[1] = membrane transition temperatures by X-ray diffraction; type: physicochemical; conditions: POPE with 1 mol % of TGM
Description: As can be appreciated, the presence of TGM induce a very important reduction in the lateral surface tension which is evident from the reduction in the value of the lamellar-to-hexagonal (L-a-HII) transition temperature, which in turn indicates an increase in non-lamellar propensity: Table 12). This effect has an important repercussion on the functionality of the membrane, as this structure allows for the anchoring of certain membrane proteins necessary for cell signalling. For this reason, it can be said that the TGMs have a positive effect on cell signalling because they allow the propagation of cell signals which are lost in association with a wide variety of diseases. This effect shown on the structure of the membrane explains in part why certain oils, such as olive oil or fish oil, have important beneficial properties for the prevention of various diseases, such as cancer, cardiovascular/metabolic diseases and neurological/neurodegenerative diseases. FIG. 6 and Table 12 show clearly how all the TGMs have a similar effect, although with minor nuances in each case. The effect on the solid-liquid transition (Tm) and the lamellar to hexagonal transition (TH) was measured in membranes of palmitoyl-oleoyl phosphatidylethanolamine (POPE) by means of X-ray diffraction in the absence of (POPE Control) or presence of 1 mol % of each one of the indicated TGMs.

Row | Compound | Δ G, change in glucose levels in plasma (plasma glucose) [mg/dL] | Chol, levels of total cholesterol in plasma (cholesterol in plasma) [mg/dL] | ΔWeight, change in weight (body weight of SHR rats) [g] | TH, lamellar to hexagonal transition temperature [1] [°C] | Tm, solid-liquid transition temperature [1] [°C] | HDL in plasma (cholesterol in plasma; 14 days, 600 mg/kg, 12 h) [mmHgmg/dl] | LDL in plasma (cholesterol in plasma; 14 days, 600 mg/kg, 12 h) [mmHgmg/dl] | Total cholesterol in plasma (cholesterol in plasma; 14 days, 600 mg/kg, 12 h) [mmHgmg/dl]
1 | CCCCCC(O)C(=O)OCC(COC(=O)C(O)CCCCC)OC(=O)C(O)CCCCC (centres unmarked) [TGM0, 1,2,3-tri(2′-hydroxyheptanoyl)glycerol] | -4 | 62.2 ± 3 | -4 ± 2 | 68.3 ± 0.6 | 22.7 ± 0.2 | – | – | –
2 | CCCCCCCCC=CCCCCCCC(O)C(=O)OCC(COC(=O)C(O)CCCCCCC=CCCCCCCCC)OC(=O)C(O)CCCCCCC=CCCCCCCCC (centres unmarked) [TGM1, 1,2,3-tri(2′-hydroxy-octadec-9′-enoyl)glycerol] | -20 | 55.5 ± 2 | -22 ± 5 | 66.0 ± 0.9 | 23.8 ± 0.3 | 33.44 ± 2.251 | 3.644 ± 0.3244 | 49.11 ± 3.084
3 | CCCCCC=CCC=CCCCCCCC(O)C(=O)OCC(COC(=O)C(O)CCCCCCC=CCC=CCCCCC)OC(=O)C(O)CCCCCCC=CCC=CCCCCC (centres unmarked) [TGM2, 1,2,3-tri(2′-hydroxy-octadec-9′,12′-dienoyl)glycerol] | -7 | 51.7 ± 2 | -32 ± 6 | 62.0 ± 1.1 | 23.6 ± 0.3 | – | – | –
4 | CCC=CCC=CCC=CCCCCCCC(O)C(=O)OCC(COC(=O)C(O)CCCCCCC=CCC=CCC=CCC)OC(=O)C(O)CCCCCCC=CCC=CCC=CCC (centres unmarked) [TGM3A, 1,2,3-tri(2′-hydroxy-octadec-9′,12′,15′-trienoyl)glycerol] | -14 | 49.8 ± 2 | -14 ± 4 | 63.0 ± 1.1 | 23.4 ± 0.2 | – | – | –
5 | CCCCCC=CCC=CCC=CCCCC(O)C(=O)OCC(COC(=O)C(O)CCCC=CCC=CCC=CCCCCC)OC(=O)C(O)CCCC=CCC=CCC=CCCCCC (centres unmarked) [TGM3G, 1,2,3-tri(2′-hydroxy-octadec-6′,9′,12′-trienoyl)glycerol] | -9 | 65.1 ± 4 | -12 ± 3 | 63.6 ± 1.1 | 23.3 ± 0.3 | – | – | –
6 | CCCCCC=CCC=CCC=CCC=CCCC(O)C(=O)OCC(COC(=O)C(O)CCC=CCC=CCC=CCC=CCCCCC)OC(=O)C(O)CCC=CCC=CCC=CCC=CCCCCC (centres unmarked) [TGM4, 1,2,3-tri(2′-hydroxy-eicosa-5′,8′,11′,14′-tetraenoyl)glycerol] | -5 | 72.7 ± 2 | -25 ± 5 | 64.6 ± 0.8 | 23.2 ± 0.2 | – | – | –
7 | CCC=CCC=CCC=CCC=CCC=CCCC(O)C(=O)OCC(COC(=O)C(O)CCC=CCC=CCC=CCC=CCC=CCC)OC(=O)C(O)CCC=CCC=CCC=CCC=CCC=CCC (centres unmarked) [TGM5, 1,2,3-tri(2′-hydroxy-eicosa-5′,8′,11′,14′,17′-pentaenoyl)glycerol] | -13 | 58.4 ± 3 | -9 ± 3 | – | – | – | – | –
8 | CCC=CCC=CCC=CCC=CCC=CCC=CCC(O)C(=O)OCC(COC(=O)C(O)CC=CCC=CCC=CCC=CCC=CCC=CCC)OC(=O)C(O)CC=CCC=CCC=CCC=CCC=CCC=CCC (centres unmarked) [TGM6, 1,2,3-tri(2′-hydroxy-docosa-4′,7′,10′,13′,16′,19′-hexanoyl)glycerol] | -16 | 48.9 ± 3 | -19 ± 4 | 64.9 ± 0.9 | 23.3 ± 0.2 | – | – | –
